The source of these data is patent US20260226101A1, “PEPTIDE WITH ANTI-INFLAMMATORY AND ANTI-MICROBIAL ACTIVITY” (priority 2023, published 2026).

Usually viability stands for the share of living cells, or the viability signal relative to a control. A higher viability goes with less harm to the cells.

One data set is described as follows: in vitro. It is filed as cell-based, murine. To be noted: mouse. The procedure: Cell viability of synthetic peptides on the growth of RAW264.7 cells was measured using the methyl thiazolyl tetrazolium (MTT) assay after 48 h. Briefly, exponentially growing macrophages RAW264.7 cells were mechanically scraped, plated at a density of 7×10^3 cells in 100 μl were seeded into each well of a 96-well plate then incubated for 12 h at 37° C. under 5% CO2, and then the cells are treated with test peptides: IS 111 ([…]) or dexamethasone ([…]) cells were incubated at 37° C. in the presence of 5% CO2 for 42 h. After incubation, the morphology of cells was examined under a microscope. Following incubation, MTT was added to the cells (20 μL at 5 mg/mL MTT dissolved in 1×PBS) and incubated for 4 hours in the presence of 5% CO2 at 37° C. Formazan crystals were dissolved by the addition of 100 μL of 100% DMSO per well. Plates were then gently swirled for 5 min at room temperature to dissolve the precipitate. Absorbance was monitored at 575 nm using a microplate reader. Maximum cytotoxicity (100%) was determined by cells incubated with 1% Triton X-100; PBS was used as a negative control. Cells without treatment were considered as control. The average absorbance for each sample group was used to evaluate cell viability.
Optical density (O.D.) was calculated as the difference between the absorbance at the reference wavelength and that at the test wavelength. The relative cell viability was determined by the amount of MTT converted to the insoluble formazan salt. The data were expressed as the mean percentage of viable cells when compared with untreated cells (control). The half maximal growth inhibitory concentration (IC50) value was calculated from the line equation of the dose-dependent curve of each compound. The results were compared with the cytotoxic activity of dexamethasone, a known anti-inflammatory drug. […] Percentages of cell viability and LC50 of cells were calculated: Percent cell viability was calculated as (O.D. of drug-treated sample/control O.D.)×100. The data were expressed as percent cell viability compared with control (dimethyl sulfoxide/NS). The experiment was carried out in four samples of each concentration.
The percentages of cell viability and LC50 of cells were calculated by using the formula below.
Where Absorbance control is the DMSO 0.1%-treated cell absorbance, and Absorbance sample is the test sample-treated cell absorbance. LC50 values were derived from dose-response curves, and data were expressed as the mean of three independent experiments. Statistical analyses involved Student's t-test and one-way ANOVA.
The test peptide IS 111 cytotoxic effects on RAW 264.7 mouse […] were determined by MTT assay. […] Cell viability was measured by MTT assay based on the conversion of yellow tetrazolium salt to form a purple formazan product. The viability of the RAW 264.7 cells can be seen on table 21.

In data set [1] the test system is E. coli ATCC 8739-induced septic peritonitis. In words: E. coli-induced septic peritonitis model. It is filed as in vivo, BALB/c mice. To be noted: for Mice alive: 18 h after infection. As to the method:
Bacterial strain of E. coli ATCC 8739™ were maintained in our laboratory and used for the mouse sepsis model. The strain was previously stored at −80° C. in a Luria Bertani (LB) broth with 15-20% of glycerol. Single colonies from viable, growing Luria-Bertani (LB) agar plates were transferred to sterile liquid LB medium (containing 10 g tryptone, 10 g NaCl, and 5 g yeast extract per liter) and cultivated aerobically in 50-ml volumes at 37° C. in an orbital shaker for 24 h at 37° C. These cultures were transferred to 500 ml of fresh LB medium for another 12 h. The optical density (OD) of the suspension was adjusted to 0.3 (exponential phase) using a spectrophotometer. Such OD corresponds to*10^8 colony-forming units (CFU)/mL. When bacteria were in the log phase of growth, the suspension was harvested by centrifugation at 1500×g for 5 min at 4° C.; the supernatant was discarded and washed and resuspended three times in phosphate-buffered saline (PBS) at pH 7.4 and mixed by vortexing to achieve a concentration of approximately 1×10^8 colony-formation units (CFU) per milliliter. Finally, the bacterial suspensions were incubated in a water bath at 100° C. for 30 min to inactivate the cells. One hundred microliters of the suspension were serially diluted with sterile saline solution, plated on sheep blood agar plates, and incubated for 18 hours for determination of the bacterial concentration. The rest of the culture suspension was stored at 4° C. until use. Just before the intraperitoneal injection, the bacterial suspension was adjusted to a concentration of 1×10^8 colony forming units (CFU) per 0.1 mL with normal saline solution/PBS.
This study was carried out within an animal containment BSL2 facility. The animals were infected with suspensions containing […] E. coli 8739™ (200 μL) inoculated intraperitoneally. The day of challenge was designated as day 1 of the experiment and considers it as 0 hr. [Wendy E. Walker, 2021; Komal Dolasia et al., 2018]
Mice received an intraperitoneal injection of E. coli ATCC 8739, 5.0×10^8 CFU per mouse in 200 μL to induce septic peritonitis as mentioned above. After 2 h of the E. coli infection, mice (n=6) were treated intravenously with two test doses of IS 111 (0.6 mg/kg & 1.2 mg/kg) in treatment groups. Control animals received 200 μL of normal saline. […] The figure was adopted and modified according to the present study. [Henrique G et al., 2020].
In all the animal experiments, IS 111 were administered by intravenous injections respectively; According to the clinical dosage regimen, IS 111 was repeatedly administered at 2 h after the intraperitoneal injection of heat-killed E. coli. The survival of mice was monitored for up to 5 days. In each group the half of the animals were killed after 18 hours. And in other subset of the animals, IS 111 at two doses 0.6 & 1.2 mg/kg were injected IV daily for 3 days following infection. The survival of mice was monitored for up to 18 h and the other half of the animals are continued for the survival monitored up to 5 days.
In the survival study, survival rates were determined over a period of 5 d with assessment every 12 h, by setting the day 0 from 0 to 18 h after surgery and continuing observation until […]. In each group the half of the animals were killed after 18 hours, in another half subset of animals was followed for 5 days for survival assessment after sepsis induction to verify mortality rates. IS 111 at two doses 0.6 & 1.2 mg/kg were injected IV daily 24 h for 3 days following the E. coli Infection.
The physical activity of the mice was recorded independently by two independent observers who were blinded to treatment before sampling as previously described. In this study predetermined grading system was used with a scale of 1 (healthy) to 5 (agony). […]

Setting [2] is: 0.6 mg/kg IV, 18 hr after induction of septic shock.
The mark [3] stands for this setting: 18 h, comparable to control mice.
[4] abbreviates: serum 18 h, therapeutic administration.

Ends that are not written are not given here.

Take “FAKKFAK [IS 111, Phe-Ala-Lys-Lys-Phe-Ala-Lys]”: in the data set “in vitro”, the viability at 48 h, 1.5625 μg/mL is 84.5%; the viability at 48 h, 3.125 μg/mL was 91.5%; the viability at 48 h, 6.25 μg/mL was 90.2%; the viability at 48 h, 12.5 μg/mL was 99.7%. In addition, in “in vitro”, the viability at 48 h, 25 μg/mL worked out at 96.4%; the viability at 48 h, 50 μg/mL was found to be 95%; the viability at 48 h, 100 μg/mL was 91.4%. In addition, in data set [1] (0.6 mg/kg IV, 18 h), the “Lung and liver injuries (histopathology)” value is “reduces the injuries to moderate extent”. Moreover, in data set [1] (setting [2]), the Activity upon stimulation result is reported as “Sluggish activity. Animals”, the Conjunctivitis result is on record as “Mild (Usually serous” and the Hair coat entry is “Moderately ruffled coats”. The Mice alive in data set [1] (0.6 mg/kg) worked out at 50%. Further, in data set [1] (setting [3]), the Lymphocyte numbers entry is given as “restored” and the WBC numbers result is “restored”. In addition, in data set [1] (18 h, vs septic mice), the Neutrophil numbers result was “marginally higher”. Further, in data set [1] ([…]), the Mice alive came out at 80%. This substance also showed a Survival in data set [1] (after 7 days of infection, IS 111 treatment groups) of 80%. Also, in data set [1] (setting [4]), the IL-1b level result was “significantly reduce”, the IL-6 level result is “significantly reduce”, the “IL-12 p70 level” value is reported as “significantly reduce” and the TNF-α level result was “significantly reduce”. The same substance yielded a Reduction of mortality in data set [1] (vs diseased control animals (normal saline)) of 80%.
